Results as given in patent publication US7947740B2, “Bimatoprost crystalline form I” (Finetech Pharmaceutical Ltd, priority 2006, dated 2011).

Experiments:
[1] = Thermodynamic stability of the crystalline modifications of bimatoprost; format: physicochemical; settings: temperature range between −70 and +30° C.
Protocol: (§1) Stability data supports the retest period of not less than 6 months if bimatoprost crystalline form I is stored in an appropriate container at 2 to 8° C. and at 25° C.
The importance of bimatoprost crystalline form I rests primarily (but not exclusively) in its thermodynamic stability. […] For example, the crystalline form I may be easily prepared by recrystallizing, triturating, or reslurring of crystalline form A.

[2] = Storage stability (retest period) of the crystalline form; format: physicochemical
Protocol: as §1

Compound: CCNC(=O)CCC/C=C\C[C@@H]1[C@@H](/C=C/[C@@H](O)CCc2ccccc2)[C@H](O)C[C@@H]1O [Bimatoprost crystalline form I, (9S,11R,15S)-9,11,15-trihydroxy-17-phenyl-18,19,20-trinor-5Z,13E-prostadienoic acid ethylamide]
- relative stability among crystalline modifications of bimatoprost [1]: most stable crystalline modification
- retest period supported by stability data ([2]; stored in an appropriate container at 2 to 8° C.): not less than 6 months
- retest period supported by stability data ([2]; stored in an appropriate container at 25° C.): not less than 6 months
